Data as given in ChEMBL document CHEMBL3856191, “Structural modifications at the 6-position of thieno[2,3-d]pyrimidines and their effects on potency at FLT3 for treatment of acute myeloid leukemia” (Eur J Med Chem, 2016).

What was measured:
[1] = molecular target: Receptor-type tyrosine-protein kinase FLT3 (Homo sapiens, UniProt P36888, D835Y)
Description: Inhibition of human FLT3 D835Y mutant preincubated for 15 mins followed by poly(Glu:Tyr) substrate addition for 30 mins in presence of [gamma-32P]ATP by TR-FRET assay

cells [2] = settings: Homo sapiens, K562, 48 h
Description: Growth inhibition of human K562 cells after 48 hrs by XTT assay

[3] = molecular target: T1, Receptor-type tyrosine-protein kinase FLT3 (Homo sapiens, UniProt P36888); experiment: biochemical; assay type: cell-based, Sf21
T1 sequence (P36888 whole entry): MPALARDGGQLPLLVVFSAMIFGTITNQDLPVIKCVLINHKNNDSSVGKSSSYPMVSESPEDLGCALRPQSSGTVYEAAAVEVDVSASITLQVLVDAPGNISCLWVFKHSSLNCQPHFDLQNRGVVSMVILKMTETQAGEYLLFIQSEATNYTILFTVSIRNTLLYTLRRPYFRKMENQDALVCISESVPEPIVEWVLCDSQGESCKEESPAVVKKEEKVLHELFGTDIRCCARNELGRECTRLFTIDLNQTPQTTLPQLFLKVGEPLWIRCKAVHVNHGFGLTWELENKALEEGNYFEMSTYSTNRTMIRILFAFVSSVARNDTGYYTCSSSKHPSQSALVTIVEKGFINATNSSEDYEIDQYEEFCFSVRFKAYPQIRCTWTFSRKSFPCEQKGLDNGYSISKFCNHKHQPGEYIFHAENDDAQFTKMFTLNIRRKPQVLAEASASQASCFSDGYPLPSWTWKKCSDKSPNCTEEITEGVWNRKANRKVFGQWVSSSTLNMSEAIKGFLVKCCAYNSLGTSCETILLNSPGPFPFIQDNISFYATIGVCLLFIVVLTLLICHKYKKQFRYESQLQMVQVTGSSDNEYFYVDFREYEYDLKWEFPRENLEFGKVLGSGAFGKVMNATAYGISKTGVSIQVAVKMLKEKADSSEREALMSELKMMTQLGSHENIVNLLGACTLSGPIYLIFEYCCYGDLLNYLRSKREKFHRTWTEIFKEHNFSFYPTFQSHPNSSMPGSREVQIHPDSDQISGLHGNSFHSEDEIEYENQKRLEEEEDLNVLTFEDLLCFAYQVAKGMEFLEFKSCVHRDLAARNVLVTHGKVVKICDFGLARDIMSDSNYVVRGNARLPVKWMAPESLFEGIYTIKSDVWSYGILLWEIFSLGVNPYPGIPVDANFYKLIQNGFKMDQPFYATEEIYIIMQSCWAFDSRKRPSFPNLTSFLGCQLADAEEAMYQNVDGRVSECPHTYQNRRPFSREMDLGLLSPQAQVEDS
Description: Inhibition of recombinant human FLT3 expressed in insect Sf21 cells preincubated for 15 mins followed by poly(Glu:Tyr) substrate addition for 30 mins in presence of [gamma-32P]ATP by TR-FRET assay

[4] = Metabolic stability in rat liver microsomes assessed as compound remaining at 1 uM after 30 mins in presence of NADPH by HPLC-MS analysis; assay type: ADME; settings: for remaining at 0.5 h, 1 µM: liver microsomes, read-out: Stability
cells [5] = settings: Homo sapiens, MV4-11, 48 h
Description: Growth inhibition of human MV4-11 cells expressing FLT3-ITD after 48 hrs by XTT assay

[6] = Metabolic stability in human liver microsomes assessed as compound remaining at 1 uM after 30 mins in presence of NADPH by HPLC-MS analysis; assay type: ADME; settings: read-out: Stability
cells [7] = settings: Homo sapiens, HL-60, 48 h
Description: Growth inhibition of human HL60 cells expressing wild type FLT-3 after 48 hrs by XTT assay

cells [8] = settings: Homo sapiens, THP-1, 48 h
Description: Growth inhibition of human THP1 cells expressing wild type FLT-3 after 48 hrs by XTT assay

Angiopoietin-1 receptor = Angiopoietin-1 receptor (Homo sapiens, UniProt Q02763); experiment: Inhibition of human TIE2 assessed as remaining activity at 10 uM preincubated for 15 mins followed by substrate addition measured after 30 mins in presence of [gamma-32P]ATP by […] assay
Chain of Angiopoietin-1 receptor (Q02763 whole entry): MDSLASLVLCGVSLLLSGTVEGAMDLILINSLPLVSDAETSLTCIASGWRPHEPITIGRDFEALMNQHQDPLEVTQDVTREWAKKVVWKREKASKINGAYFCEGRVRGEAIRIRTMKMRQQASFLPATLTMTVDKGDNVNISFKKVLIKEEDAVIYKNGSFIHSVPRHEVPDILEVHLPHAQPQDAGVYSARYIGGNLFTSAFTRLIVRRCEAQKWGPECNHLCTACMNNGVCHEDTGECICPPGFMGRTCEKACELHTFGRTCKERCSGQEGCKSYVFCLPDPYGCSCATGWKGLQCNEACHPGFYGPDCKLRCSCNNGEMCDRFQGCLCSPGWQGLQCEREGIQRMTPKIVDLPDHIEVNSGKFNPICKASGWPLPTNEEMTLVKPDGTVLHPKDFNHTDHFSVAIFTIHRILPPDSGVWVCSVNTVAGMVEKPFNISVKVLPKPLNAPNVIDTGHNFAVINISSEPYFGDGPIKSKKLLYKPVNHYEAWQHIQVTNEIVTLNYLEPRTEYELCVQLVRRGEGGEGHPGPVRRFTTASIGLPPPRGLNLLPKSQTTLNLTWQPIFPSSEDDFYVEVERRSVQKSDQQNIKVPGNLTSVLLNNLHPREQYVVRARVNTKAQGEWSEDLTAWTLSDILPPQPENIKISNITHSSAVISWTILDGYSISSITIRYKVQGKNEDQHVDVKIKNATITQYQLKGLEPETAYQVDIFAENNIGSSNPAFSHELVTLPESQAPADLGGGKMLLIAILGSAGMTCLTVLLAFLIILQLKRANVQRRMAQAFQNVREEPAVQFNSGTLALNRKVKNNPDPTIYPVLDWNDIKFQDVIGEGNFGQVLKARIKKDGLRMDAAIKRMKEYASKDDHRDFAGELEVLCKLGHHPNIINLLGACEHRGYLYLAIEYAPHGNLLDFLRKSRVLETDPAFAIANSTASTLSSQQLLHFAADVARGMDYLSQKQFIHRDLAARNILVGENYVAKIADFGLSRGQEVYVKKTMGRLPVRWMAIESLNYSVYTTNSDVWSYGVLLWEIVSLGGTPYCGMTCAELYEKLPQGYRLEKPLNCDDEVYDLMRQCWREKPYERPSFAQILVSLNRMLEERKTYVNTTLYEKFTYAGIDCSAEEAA

[9] = molecular target: Tyrosine-protein kinase ABL1 (Homo sapiens, UniProt P00519); experiment: Inhibition of recombinant human ABL1 expressed in insect cells assessed as remaining activity at 10 uM preincubated for 15 mins followed by poly(Glu:Tyr) substrate addition for 30 mins in presence of [gamma-32P]ATP by […] assay
Chain of Tyrosine-protein kinase ABL1 (P00519 whole entry): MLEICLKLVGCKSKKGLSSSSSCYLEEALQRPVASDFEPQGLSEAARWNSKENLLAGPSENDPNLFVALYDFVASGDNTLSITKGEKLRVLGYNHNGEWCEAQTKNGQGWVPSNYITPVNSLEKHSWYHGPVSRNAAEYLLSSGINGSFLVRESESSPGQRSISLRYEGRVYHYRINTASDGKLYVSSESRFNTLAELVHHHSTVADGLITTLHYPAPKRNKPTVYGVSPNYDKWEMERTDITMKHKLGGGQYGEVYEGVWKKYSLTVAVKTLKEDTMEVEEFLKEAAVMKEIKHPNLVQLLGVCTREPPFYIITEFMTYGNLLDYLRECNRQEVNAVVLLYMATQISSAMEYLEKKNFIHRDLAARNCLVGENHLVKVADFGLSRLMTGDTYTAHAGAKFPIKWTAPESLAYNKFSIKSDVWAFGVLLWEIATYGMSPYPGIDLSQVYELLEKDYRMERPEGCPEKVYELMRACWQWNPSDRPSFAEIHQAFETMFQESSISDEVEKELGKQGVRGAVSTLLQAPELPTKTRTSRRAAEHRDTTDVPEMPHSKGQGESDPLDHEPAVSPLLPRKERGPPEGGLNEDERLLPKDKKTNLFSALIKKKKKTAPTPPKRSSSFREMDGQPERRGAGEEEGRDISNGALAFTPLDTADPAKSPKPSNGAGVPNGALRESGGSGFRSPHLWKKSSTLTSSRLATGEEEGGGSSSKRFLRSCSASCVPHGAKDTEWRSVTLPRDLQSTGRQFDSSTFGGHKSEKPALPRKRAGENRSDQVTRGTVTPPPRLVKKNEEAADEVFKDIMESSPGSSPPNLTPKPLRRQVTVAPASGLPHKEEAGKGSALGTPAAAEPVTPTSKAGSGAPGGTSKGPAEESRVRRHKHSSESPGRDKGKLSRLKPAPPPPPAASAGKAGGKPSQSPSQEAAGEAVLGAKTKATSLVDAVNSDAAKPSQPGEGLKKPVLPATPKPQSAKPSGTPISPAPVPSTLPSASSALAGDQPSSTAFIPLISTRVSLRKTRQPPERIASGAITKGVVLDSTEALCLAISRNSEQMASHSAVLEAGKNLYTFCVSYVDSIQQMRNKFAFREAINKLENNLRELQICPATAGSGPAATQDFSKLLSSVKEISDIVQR

Row | SMILES | IC50 [1] | GI50 (cells [2]) | IC50 [3] | remaining at 0.5 h, 1 µM [4] | GI50 (cells [5]) | remaining at 0.5 h, 1 µM [6] | GI50 (cells [7]) | GI50 (cells [8]) | Activity (Angiopoietin-1 receptor) | Activity [9] | Stability ([4]; microsomes, 0.5 h, 1 µM)
1 | CC1=CC(=O)N(Nc2nc(-c3cccs3)nc3sc(-c4ccc(O)cc4)cc23)C1=O | 78.7 nM | 506 nM | 75.5 nM | 28.2% | 927 nM | 74.1% | 336 nM | 765 nM |  |  | 
2 | COc1ccc(-c2cc3c(NN4C(=O)C=C(C)C4=O)nc(-c4cccs4)nc3s2)cc1 | 47.1 nM | 1090 nM | 68.6 nM |  | 1700 nM |  | 682 nM | 1270 nM |  |  | 
3 | CC1=CC(=O)N(Nc2nc(-c3cccs3)nc3sc(-c4ccc(O)cc4)c(C)c23)C1=O |  |  |  | 28.8% |  | 71.8% |  |  |  |  | 
4 | CC1=CC(=O)N(Nc2nc(-c3cccs3)nc3sc(-c4ccc(OCc5ccc(F)cc5)cc4)c(C)c23)C1=O |  |  |  | 35.6% |  | 66.9% |  |  |  |  | 
5 | CC1=CC(=O)N(Nc2nc(-c3cccs3)nc3sc(-c4ccc(F)cc4)c(C)c23)C1=O |  |  |  | 54.5% |  | 39.5% |  |  |  |  | 
6 | CC1=CC(=O)N(Nc2nc(-c3cccs3)nc3sc(C)cc23)C1=O | 14.7 nM | 1000 nM | 16.8 nM | 32.6% | 1060 nM | 58.8% | 422 nM | 1240 nM |  |  | 
7 | CC1=CC(=O)N(Nc2nc(-c3cccs3)nc3sc(CO)c(C)c23)C1=O |  |  |  | 20.4% |  | 24.6% |  |  |  |  | 
8 | CC1=CC(=O)N(Nc2nc(-c3cccs3)nc3sc(C#N)c(C)c23)C1=O | 75 nM |  | 118 nM | 26.1% |  | 52.7% |  |  |  |  | 
9 | CC1=CC(=O)N(Nc2nc(-c3cccs3)nc3sc(-c4ccc(OCCN5CCCC5)cc4)c(C)c23)C1=O | 16.5 nM | 1040 nM | 6.43 nM | 41.5% | 585 nM | 72.7% | 1260 nM | 636 nM |  |  | 
10 | CC1=CC(=O)N(Nc2nc(-c3cccs3)nc3sc(-c4ccc(OC5CCNC5)cc4)c(C)c23)C1=O (stereo not given) | 29.3 nM | 315 nM | 3.77 nM | 34.2% | 366 nM | 50.8% | 214 nM | 227 nM | 25% | 26% | 
11 | CC1=CC(=O)N(Nc2nc(-c3cccs3)nc3sc(-c4ccc(OCCNCCO)cc4)c(C)c23)C1=O.Cl | 0.334 nM | 1410 nM | 5.31 nM |  | 1130 nM | 91.3% | 1340 nM | 843 nM |  |  | Nd(Unstable)
12 | CC1=CC(=O)N(Nc2nc(-c3cccs3)nc3sc(-c4ccc(OCCNCCC#N)cc4)c(C)c23)C1=O | 29.4 nM |  | 191 nM | 32.1% |  | 52% |  |  |  |  | 
13 | CC1=CC(=O)N(Nc2nc(-c3cccs3)nc3sc(-c4ccc(OCCNCC(C)C)cc4)c(C)c23)C1=O | 35.9 nM | 489 nM | 2.5 nM | 39.7% | 278 nM | 66.2% | 598 nM | 449 nM |  |  | 
14 | CC1=CC(=O)N(Nc2nc(-c3cccs3)nc3sc(C)c(C)c23)C1=O | 13.7 nM | 105 nM | 11.4 nM | 22.7% | 191 nM | 32.4% | 127 nM | 222 nM | 32% | 29% | 
15 | CC1=CC(=O)N(Nc2nc(-c3cccs3)nc3sc(-c4ccc(F)cc4)cc23)C1=O | 54.4 nM |  | 124 nM | 26.9% |  | 61% |  |  |  |  | 
16 | CC1=CC(=O)N(Nc2nc(-c3cccs3)nc3sc(-c4ccc(OCCNCc5ccccc5)cc4)c(C)c23)C1=O | 9.48 nM |  | 71.9 nM | 30.4% |  | 86.2% |  |  |  |  | 
17 | CC1=CC(=O)N(Nc2nc(-c3cccs3)nc3sc(-c4ccc(OC5CCNCC5)cc4)c(C)c23)C1=O | 27.2 nM | 425 nM | 31.4 nM | 47.8% | 580 nM | 52.4% | 377 nM | 460 nM |  |  | 
18 | CC1=CC(=O)N(Nc2nc(-c3cccs3)nc3sc(-c4ccc(OCC5CCCO5)cc4)c(C)c23)C1=O (stereo not given) |  |  |  | 41% |  | 41.7% |  |  |  |  | 
